# Measurements published in PMC3348334 (Bioorganic & medicinal chemistry letters, 2012).
# System: COX
# Assay: COX activity inhibition at single concentration
# Type: biochemical, human
# Details: at 100 μM
compound,measurement,value
"O=C(O)c1cccc(Nc2ccc([N+](=O)[O-])c3ccccc23)c1 [Compound 2, 3-((4-nitronaphthalen-1-yl)amino)benzoic acid]",inhibition of COX activity,no significant inhibition
